# Reference: patent publication US11091476B2, “Protein kinase inhibitors, preparation method and medical use thereof” (Gan & Lee Pharmaceuticals, priority 2015, dated 2021)
# How the values were obtained:
# CDK6/CyclinD3 = CDK6/CyclinD3 (Homo sapiens (Human), UniProt Q00534); assay: CDK kinase inhibitory activity, ADP-Glo Kinase Assay, CDK6/CyclinD3; assay type: biochemical
# [1] = Rat pharmacokinetic determination (LC/MS/MS of plasma); assay type: in vivo, SD rats; details: for bioavailability: oral, intragastric 5 mg/kg vs intravenous 2 mg/kg; for AUC(0-inf): read-out: Area under curve AUC0-∞; for half-life: read-out: Half life T1/2 (converted); for AUC(0-t): read-out: Area under curve AUC0-t; for MRT: read-out: Retention time MRT; for Vd: read-out: Apparent volume of distribution VZ; for clearance: read-out: Clearance rate Cl
# Description: Rat Pharmacokinetic Determination of Representative Compounds of the Present Disclosure
# SD rats were used as the test animals, and the concentrations of the drugs in the plasma of rats at different time points after the intravenous administration and intragastric administration of the representative compounds were determined by LC/MS/MS, so as to study the pharmacokinetic behavior of the compounds of the disclosure in rats and evaluate the pharmacokinetic characteristics thereof.
# Intragastric administration: An appropriate amount of sample was weighed, and added with 0.1% hydroxyethyl cellulose/0.5% TWEEN®80 to a final volume to give 1 mg/ml solution.
# (§1) Whole blood was anticoagulated with EDTA-K2 and centrifuged, the supernatant was removed, and the residue was frozen at −20° C. until sample analysis. Plasma samples were analyzed by LC-MS/MS, sample pretreatment was performed using a protein precipitation method, the linear range of sample analysis was 1-2000 ng/ml, and the lowest quantification limit was 1 ng/ml.
# [2] = Pharmacokinetic determination in mouse (LC/MS/MS of plasma); assay type: in vivo, ICR mice; details: for AUC(0-t): read-out: Area under curve AUC0-t; for AUC(0-inf): read-out: Area under curve AUC0-∞; for half-life: read-out: Half life T1/2 (converted); for MRT: read-out: Retention time MRT
# Description: Pharmacokinetic Determination of Representative Compounds of this Disclosure in Mouse
# The ICR mice were used as the test animals, and the concentrations of the drugs in the plasma of mice at different time points after intragastric administration and intravenous administration of the representative compound of the present disclosure were determined by LC/MS/MS, so as to study the pharmacokinetic behavior of the compounds of the disclosure in mice and evaluate the pharmacokinetic characteristics thereof.
# An appropriate amount of sample was weighed, and added with 0.1% hydroxyethyl cellulose/0.5% TWEEN®80 to a final volume to give 0.5 mg/ml solution for intragastric administration.
# as §1, with “analysis. […] The plasma samples were treated in the same manner as that employed for plasma samples of the intragastrically administered group.” for “analysis.”, “using” for “using a”
# [3] = tested on: Human glioma cell line U87 MG; assay: Inhibition of proliferation of the U87 MG cell line (DAPI, In Cell Analyzer); assay type: cell-based; details: for IC50: Homo sapiens, U-87 MG, 72 hours incubation, read-out: IC50, proliferation of U87MG Cell Line
# Description: The inhibition rate of each compound at each concentration point was calculated by the formula as follows and curve fitting was performed by GraphPad Prism 5 software to obtain the IC50 value.
# [4] = male, SD, rat, plasma, po, rats, single intragastric administration, 5 mg/kg
# [5] = male, rat, plasma, po, rats, single intragastric administration, 5 mg/kg, Mean ± SD
# [6] = male, rat, plasma, rats, single intravenous administration, 2 mg/kg, Mean ± SD
# [7] = male, ICR, mouse, plasma, po, mice, single intragastric administration, 5 mg/kg, Mean ± SD
# [8] = male, ICR, mouse, plasma, mice, single intravenous administration, 2 mg/kg, Mean ± SD
# CDK6/CyclinD3, sequence (Q00534 whole entry): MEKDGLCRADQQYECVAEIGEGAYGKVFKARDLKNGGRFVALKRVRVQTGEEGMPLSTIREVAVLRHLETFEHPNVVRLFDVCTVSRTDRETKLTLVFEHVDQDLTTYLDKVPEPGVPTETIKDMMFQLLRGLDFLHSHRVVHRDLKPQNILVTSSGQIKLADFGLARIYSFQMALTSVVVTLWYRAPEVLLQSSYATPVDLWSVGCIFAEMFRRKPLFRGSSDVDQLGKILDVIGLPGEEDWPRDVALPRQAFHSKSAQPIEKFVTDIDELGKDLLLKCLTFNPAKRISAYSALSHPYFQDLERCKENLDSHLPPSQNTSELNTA
# CDK6/CyclinD3, sequence (P30281 whole entry partner): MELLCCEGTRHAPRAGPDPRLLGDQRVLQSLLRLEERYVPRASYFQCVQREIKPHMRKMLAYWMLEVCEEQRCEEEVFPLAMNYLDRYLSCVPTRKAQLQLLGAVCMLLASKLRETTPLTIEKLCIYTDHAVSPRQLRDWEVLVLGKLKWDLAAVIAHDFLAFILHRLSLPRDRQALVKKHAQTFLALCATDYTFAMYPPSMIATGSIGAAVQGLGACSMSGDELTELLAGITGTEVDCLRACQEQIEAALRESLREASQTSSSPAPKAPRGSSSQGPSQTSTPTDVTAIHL
Structure (SMILES),IC50 (CDK6/CyclinD3) [nM],"bioavailability ([1]; male, SD, rat, plasma, rats) [%]","AUC(0-inf) [1, 4] [ng·h/mL]","AUC(0-t) [1, 5] [ng·h/mL]","Vd [1, 6] [L/kg]","AUC(0-t) [1, 6] [ng·h/mL]","clearance [1, 6] [mL/min/kg]","MRT [1, 6] [h]","AUC(0-t) [2, 7] [ng·h/mL]","AUC(0-inf) [2, 7] [ng·h/mL]","AUC(0-t) [2, 8] [ng·h/mL]","AUC(0-inf) [2, 8] [ng·h/mL]",IC50 [3] [nM],also measured
"CCN1CCC(c2ccc(Nc3ncc(F)c(-c4cc(F)c5c(c4)C4(CCCC4)C(C)=N5)n3)nc2)CC1 [Example 12, N-(5-(1-ethylpiperidin-4-yl)pyridin-2-yl)-5-fluoro-4-(7′-fluoro-2′-methylspiro [cyclopentane-1,3′-indol]-5′-yl)pyrimidine-2-amino]",3.78,–,–,–,–,–,–,–,–,–,–,–,–,"CDK1/CDK6 (CDK6/CyclinD3; ratio of IC50s, selectivity for CDK6 over CDK1): 283.33; CDK9/CDK6 (CDK6/CyclinD3; ratio of IC50s, selectivity for CDK6 over CDK9): 18.75; Pim-1/CDK6 (CDK6/CyclinD3; ratio of IC50s, selectivity for CDK6 over Pim-1): 3.99"
"CC1=Nc2c(F)cc(-c3nc(Nc4ccc(C5CCN(C)CC5)cn4)ncc3F)cc2C12CCCC2 [Example 17, 5-Fluoro-4-(7′-fluoro-2′-methylspiro[cyclopentane-1,3′-indol]-5′-yl)-N-(5-(1-methylpiperidin-4-yl)pyridin-2-yl)pyrimidine-2-amino]",0.73,102,5260,2610 ± 1220,19.4 ± 5.89,1020 ± 239,30 ± 11.1,7.78 ± 1.3,2130 ± 96.9,2500 ± 387,1140 ± 77.8,1327 ± 4,35.4,"Inhibitory effect on CDK6, in words (CDK6/CyclinD3; test conclusion): higher enzymatic activity for CDK6; half-life [1, 4]: 2 h; Cmax ([1]; male, rat, plasma, po, rats, single intragastric administration, 5 mg/kg, Mean ± SD, read-out: Blood concentration Cmax): 188 ± 75 ng/mL; MRT [1, 5]: 10.2 ± 0.27 h; AUC(0-inf) [1, 6]: 1220 ± 456 ng·h/mL; half-life [1, 6]: 8.67 ± 4.98 h; Bioavailability in rats, in words ([1]; relative to LY2835219): higher bioavailability; bioavailability ([2]; male, ICR, mouse, plasma, oral, mice, intragastric 5 mg/kg vs intravenous 2 mg/kg): 75.1%; Cmax ([2]; male, ICR, mouse, plasma, po, mice, single intragastric administration, 5 mg/kg, Mean ± SD, read-out: Blood concentration Cmax): 134 ± 11.8 ng/mL; half-life [2, 7]: 8.38 ± 3.16 h; MRT [2, 7]: 9.45 ± 1.05 h; Vd ([2]; male, ICR, mouse, plasma, mice, single intravenous administration, 2 mg/kg, Mean ± SD, read-out: Apparent volume of distribution VZ): 19.8 ± 0.81 L/kg; half-life [2, 8]: 9.1 ± 0.26 h; MRT [2, 8]: 7.51 ± 0.28 h; Clearance rate Cl ([2]; mice, single intravenous administration, 2 mg/kg, Mean ± SD): 25.2 ± 1.72 mL/min/kg; Bioavailability and half-life in mice, in words ([2]; relative to LY2835219): higher bioavailability and longer half-life; Inhibitory activity on proliferation of the U87MG cell line, in words ([3]; experimental conclusion): significant inhibitory activity"
"CCN1CCN(Cc2ccc(Nc3ncc(F)c(-c4cc(F)c5nc(C)n(C(C)C)c5c4)n3)nc2)CC1 [LY2835219, reference compound]",–,87.4,3440,3280 ± 731,6.95 ± 2.43,1500 ± 337,22.4 ± 4.49,3.82 ± 1.44,756 ± 34,765 ± 34,674 ± 82.1,679 ± 81,151,"clearance ([2]; male, ICR, mouse, plasma, mice, single intravenous administration, 2 mg/kg, Mean ± SD, read-out: Clearance rate Cl): 49.6 ± 5.72 mL/min/kg"
